# Patent US10526322B2, “Inhibitors of kidney-type glutaminase, GLS-1” (CORNELL UNIVERSITY, priority 2014, dated 2020)
# Positions count from the first letter of the chain named.
# Assays:
# [1] = molecular target: T1, 488-GAC and QSY9-GAC (Mus musculus, UniProt D3Z7P3); test: FRET assay for GAC tetramer formation; format: binding; conditions: 25 nM 488-GAC and 25 nM QSY9-GAC
# T1 construct: (residues 72-603) was cloned into a pET23a vector; His-tag with thrombin cleavage site (N, cleaved yes); made in house
# T1 sequence (D3Z7P3 72-603 isoform D3Z7P3-2): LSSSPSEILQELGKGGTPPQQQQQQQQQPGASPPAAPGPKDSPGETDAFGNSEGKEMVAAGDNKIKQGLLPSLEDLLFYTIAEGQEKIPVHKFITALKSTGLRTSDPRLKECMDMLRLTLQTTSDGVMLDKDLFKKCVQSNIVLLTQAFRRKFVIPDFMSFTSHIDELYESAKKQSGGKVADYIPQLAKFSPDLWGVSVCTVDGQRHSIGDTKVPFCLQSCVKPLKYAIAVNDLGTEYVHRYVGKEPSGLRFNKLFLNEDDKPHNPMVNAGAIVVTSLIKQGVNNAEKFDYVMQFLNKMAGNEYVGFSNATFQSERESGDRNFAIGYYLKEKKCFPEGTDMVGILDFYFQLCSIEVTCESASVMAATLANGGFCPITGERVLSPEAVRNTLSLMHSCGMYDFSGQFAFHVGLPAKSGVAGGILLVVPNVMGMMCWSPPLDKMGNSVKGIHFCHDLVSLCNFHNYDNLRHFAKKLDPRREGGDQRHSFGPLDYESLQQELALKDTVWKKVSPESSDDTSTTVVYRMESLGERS
# Description: Fluorescence experiments were performed using a Varian Cary Eclipse Fluorometer in the counting mode. Excitation and emission wavelengths were 490 and 520 nm, respectively. Experiments were all performed using 1-mL samples with continuous stirring at 20° C. in 50 mM Tris-Acetate, pH 8.5, 0.1 mM ethylenediamine tetraacetic acid (EDTA). For wild-type (WT) GAC titrations in the absence of inorganic phosphate, 25 nM 488-GAC was equilibrated with 25 μL of QSY9-GAC (at varying concentrations) and allowed to equilibrate for 10 minutes, at which point 75 μL of the appropriate concentration of unlabeled WT GAC was added to provide a 10-fold excess over labeled-GAC. To test whether the purified GAC mutants can form oligomers with WT GAC, 200 nM QSY9-GAC (D391K) or 200 nM QSY9-GAC (D391K, K316E, R459E) was added to an equilibrated sample of 20 nM 488-WT GAC. When assaying the effects of BPTES and 968 on oligomer formation, BPTES or 968 was added following equilibration of a sample of 25 nM QSY9-WT GAC and 25 nM 488-WT GAC. Both BPTES and 968 were prepared in DMSO, and appropriate dilutions were made so that less than 2% (v/v) DMSO was added to an experimental sample.
# [2] = molecular target: T2, monomeric GAC (D391K, K316E, R459E) (Mus musculus, UniProt D3Z7P3, D391K/K316E/R459E); test: 968 binding to GAC mutants, quenching of 488 fluorescence; conditions: 10 nM total monomer
# T2 construct: (residues 72-603) was cloned into a pET23a vector; His-tag with thrombin cleavage site (N); made in house
# T2 sequence (D3Z7P3 72-603 isoform D3Z7P3-2 K316E/D391K/R459E): T1 sequence (D3Z7P3 72-603 isoform D3Z7P3-2) with K245E, D320K, R388E
# Description: Real-time fluorescence monitoring of 968 binding and GAC activity through production of NADH was performed on a Varian Cary Eclipse Fluorometer, whereas small molecule inhibition and binding titrations were performed in a 96-well format in a Tecan Saphire absorbance and fluorescence plate reader. Samples for monitoring real-time binding of 968 to 488-GAC were prepared by adding 10 μL of varying concentrations of 968 prepared in DMSO to an equilibrated 1 mL sample of 10 nM 488-GAC, while observing 488 fluorescence (490 nm excitation/520 nm emission). […] WT GAC (10 nM) was added and allowed to equilibrate 2 minutes before monitoring the fluorescence emission of 488-GAC (490 nm excitation, 520 nm emission) and NADH (340 nm excitation, 490 nm emission). […] The activity of GAC was measured in a coupled assay, by monitoring the NADH produced by glutamate dehydrogenase, which converts the product of the glutaminase-catalyzed reaction, glutamate, to α-ketoglutarate and ammonia by reducing NAD+ to NADH. Because solutions containing glutamine undergo non-enzymatic degradation to glutamate, samples were further analyzed by […] under identical experimental conditions. […]
structure (smiles),measurement,setting,value
CN(C)c1ccc(C2Nc3ccc4ccccc4c3C3=C2C(=O)CC(C)(C)C3)cc1Br (centres unmarked) [Compound 968],effect on GAC tetramer formation (488-GAC emission in mixture with QSY9-GAC),[1],does not appear to interfere with GAC tetramer formation
same,affinity for 968 compared with WT 488-GAC and dimeric GAC (D391K),[2],highest affinity
